The target of assay [1] is WT MtIPMS (Mycobacterium tuberculosis, UniProt P9WQB3). The assay can be described thus: Steady-state kinetic analysis. The format is biochemical.
Assay [2] concerns the target WT IPMS (Mycobacterium tuberculosis, UniProt P9WQB3). It is filed as binding. The conditions noted are these: ITC.
In assay [3] the target is wild-type MtIPMS (Mycobacterium tuberculosis, UniProt P9WQB3). The format is biochemical.

Structures are written as SMILES. Read-outs that look alike come from different tables or passages of the source.

WT MtIPMS, sequence (P9WQB3 whole entry): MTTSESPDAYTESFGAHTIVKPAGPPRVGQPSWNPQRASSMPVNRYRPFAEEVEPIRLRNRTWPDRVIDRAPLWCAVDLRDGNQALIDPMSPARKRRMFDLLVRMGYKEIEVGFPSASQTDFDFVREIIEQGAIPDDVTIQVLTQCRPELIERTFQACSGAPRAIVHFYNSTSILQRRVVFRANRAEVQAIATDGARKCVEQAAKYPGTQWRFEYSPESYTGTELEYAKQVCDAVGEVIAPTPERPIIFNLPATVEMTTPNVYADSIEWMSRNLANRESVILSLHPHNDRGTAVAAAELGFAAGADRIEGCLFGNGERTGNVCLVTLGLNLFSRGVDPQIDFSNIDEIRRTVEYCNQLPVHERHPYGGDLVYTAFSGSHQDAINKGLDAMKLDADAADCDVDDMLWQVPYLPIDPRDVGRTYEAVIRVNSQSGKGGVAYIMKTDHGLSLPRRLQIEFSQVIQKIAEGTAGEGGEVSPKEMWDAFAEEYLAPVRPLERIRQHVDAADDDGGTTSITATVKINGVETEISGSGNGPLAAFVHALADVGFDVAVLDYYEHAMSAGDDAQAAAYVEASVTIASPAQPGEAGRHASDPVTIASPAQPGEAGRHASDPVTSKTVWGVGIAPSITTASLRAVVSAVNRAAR
WT IPMS, sequence (P9WQB3 whole entry): as above
wild-type MtIPMS, sequence (P9WQB3 whole entry): as above

Consider `CC(=O)SCCNC(=O)CCNC(=O)[C@H](O)C(C)(C)COP(=O)(O)OP(=O)(O)OC[C@H]1O[C@@H](n2cnc3c(N)ncnc32)[C@H](O)[C@@H]1OP(=O)(O)O` [Acetyl-CoA, acetyl-coenzyme A], for which, in assay [1] (read-out: K1 (Km), varied substrate Acetyl-CoA), the Km (usually the substrate concentration at which the rate is half of its maximum) came out at 24 ± 2 µM. Besides, the “kcat1 (kcat)” value in assay [1] (varied substrate Acetyl-CoA) turned out to be 2.72 ± 0.05 s⁻¹.
In the case of `CC(C)C[C@H](N)C(=O)O` [L-leucine], in assay [2], the “N (stoichiometry for binding)” value is given as 0.86 ± 0.02, the ΔH was 0.774 ± 0.02 kcal/mol and the ΔS stood at 27.8 cal/mol/K. In assay [3], the “activity retained at saturating L-leucine” value is listed as “approximately 10%” and the “β (fractional activity at saturating inhibitor)” value amounted to 0.1.
In the case of `CC(C)C(=O)C(=O)O` [α-KIV, α-ketoisovalerate], the Km in assay [1] (read-out: K1 (Km), varied substrate α-KIV) was 7.1 ± 0.5 µM. In addition, the “kcat1 (kcat)” value in assay [1] (varied substrate α-KIV) was 2.53 ± 0.05 s⁻¹.

For the origin of these results see article PMC2724842 (Biochemistry, 2009).
